Results: ChEMBL document CHEMBL1201862, “PubChem BioAssay data set” (2004)
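48-hour exposure; five concentrations; linearly interpolated endpoints. GI50 marks 50% less growth.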 Calls of active or inactive are those of the source. No stated cut-off is given here; in the data, active = GI50 up to about 1.1 µM and inactive = higher.

How the values were obtained:
Experiment in all cases: NCI anticancer screen, dose series, 48 h
786-0 = system: 786-0
A549 = system: A549
ACHN = system: ACHN
BT-549 = system: BT-549
CAKI-1 = system: CAKI-1
CCRF-CEM = system: CCRF-CEM
COLO 205 = system: COLO 205
DU-145 = system: DU-145
EKVX = system: EKVX
HCT-116 = system: HCT-116
HCT-15 = system: HCT-15
HL-60 = system: HL-60
HOP-62 = system: HOP-62
HT-29 = system: HT-29
Hs-578T = system: Hs-578T
IGROV-1 = system: IGROV-1
K562 = system: K562
KM12 = system: KM12
LOX IMVI = system: LOX IMVI
M14 = system: M14
MCF7 = system: MCF7
MDA-MB-231 = system: MDA-MB-231
MDA-MB-435 = system: MDA-MB-435
MDA-N = system: MDA-N
MOLT-4 = system: MOLT-4
Malme-3M = system: Malme-3M
NCI-H226 = system: NCI-H226
NCI-H23 = system: NCI-H23
NCI-H460 = system: NCI-H460
NCI-H522 = system: NCI-H522
NCI/ADR-RES = system: NCI/ADR-RES
OVCAR-3 = system: OVCAR-3
OVCAR-4 = system: OVCAR-4
OVCAR-5 = system: OVCAR-5
OVCAR-8 = system: OVCAR-8
PC-3 = system: PC-3
RPMI-8226 = system: RPMI-8226
RXF 393 = system: RXF 393
SF-268 = system: SF-268
SF-295 = system: SF-295
SK-MEL-28 = system: SK-MEL-28
SK-MEL-5 = system: SK-MEL-5
SK-OV-3 = system: SK-OV-3
SN12C = system: SN12C
SNB-19 = system: SNB-19
SNB-75 = system: SNB-75
SR = system: SR
T47D = system: T47D
TK-10 = system: TK-10
U-251 = system: U-251
UACC-257 = system: UACC-257
UACC-62 = system: UACC-62
UO-31 = system: UO-31

## S=C1CC(c2ccccc2)Sc2ccc(Cl)cc2N1 (stereo not drawn)
786-0
  GI50: 24.3 µM (inactive)
A549
  GI50: 34.8 µM (inactive)
ACHN
  GI50: 58.1 µM (inactive)
BT-549
  GI50: 19.9 µM (inactive)
CAKI-1
  GI50: 63.7 µM (inactive)
CCRF-CEM
  GI50: > 100 µM (inactive)
COLO 205
  GI50: 63.7 µM (inactive)
DU-145
  GI50: 42.9 µM (inactive)
EKVX
  GI50: 50.7 µM (inactive)
HCT-116
  GI50: 21.2 µM (inactive)
HCT-15
  GI50: 32.7 µM
HL-60
  GI50: 24.4 µM (inactive)
HOP-62
  GI50: 45.6 µM (inactive)
HT-29
  GI50: 60.7 µM (inactive)
Hs-578T
  GI50: 16.4 µM (inactive)
IGROV-1
  GI50: 90.8 µM (inactive)
K562
  GI50: 16.2 µM (inactive)
KM12
  GI50: 56.6 µM (inactive)
LOX IMVI
  GI50: > 100 µM (inactive)
M14
  GI50: 37.4 µM (inactive)
MCF7
  GI50: 36.2 µM (inactive)
MDA-MB-231
  GI50: 47.9 µM (inactive)
MDA-MB-435
  GI50: 13.4 µM (inactive)
MDA-N
  GI50: 38.8 µM (inactive)
MOLT-4
  GI50: 18.7 µM (inactive)
Malme-3M
  GI50: > 100 µM (inactive)
NCI-H226
  GI50: > 100 µM (inactive)
NCI-H23
  GI50: 30.8 µM (inactive)
NCI-H460
  GI50: 21.2 µM (inactive)
NCI-H522
  GI50: 25.8 µM (inactive)
NCI/ADR-RES
  GI50: 86.3 µM (inactive)
OVCAR-3
  GI50: 46.5 µM (inactive)
OVCAR-4
  GI50: 54.5 µM (inactive)
OVCAR-5
  GI50: > 100 µM (inactive)
OVCAR-8
  GI50: 43.4 µM (inactive)
PC-3
  GI50: 4.56 µM (inactive)
RPMI-8226
  GI50: 90.4 µM (inactive)
RXF 393
  GI50: 2.99 µM (inactive)
SF-268
  GI50: 37.9 µM (inactive)
SF-295
  GI50: 26.9 µM (inactive)
SK-MEL-28
  GI50: 41.1 µM (inactive)
SK-MEL-5
  GI50: 22 µM (inactive)
SK-OV-3
  GI50: 56.6 µM (inactive)
SN12C
  GI50: 94 µM (inactive)
SNB-19
  GI50: 34 µM (inactive)
SNB-75
  GI50: 30 µM (inactive)
SR
  GI50: 20.8 µM (inactive)
T47D
  GI50: 59.3 µM (inactive)
TK-10
  GI50: 36.8 µM (inactive)
U-251
  GI50: 16.5 µM (inactive)
UACC-257
  GI50: 18.1 µM (inactive)
UACC-62
  GI50: 48.1 µM (inactive)
UO-31
  GI50: 71.3 µM (inactive)
